Test results as given in PMC10745768, “Stereoselective Synthesis and Antiproliferative Activity of Steviol-Based Diterpene 1,3-Aminoalcohol Regioisomers” (Molecules, 2023).

Columns and labels:
[1] = system: SiHa cells; assay: MTT antiproliferative assay, SiHa; assay type: cell-based; conditions: Homo sapiens, 72 h, read-out: Growth inhibition (%) ± SEM
Method: (§1) The in vitro anticancer effects of the presented compounds were assessed using the standard MTT [3-(4,5-dimethylthiazol2-yl)-2,5-diphenyltetrazolium bromide] assay on the following human cancer cell lines: cervical (HeLa and SiHa), breast (MCF-7 and MDA-MB-231) and ovarian cancer (A2780). The selectivity of the tested compounds was determined on murine embryonal fibroblast cells (NIH/3T3). The utilised cell lines were purchased from the European Collection of Cell Cultures (Salisbury, UK). The cells were cultivated in Eagle’s minimal essential medium supplemented with 10% fetal bovine serum, 1% non-essential amino acids and 1% antibiotic-antimycotic complex (penicillin, streptomycin, amphotericin B) at 37 °C in a humidified atmosphere containing 5% CO2. All media and supplements were purchased from Lonza Group Ltd. (Basel, Switzerland). The cancer cells were seeded into 96-well plates (5000 cells/well) and incubated overnight, and the test compounds were applied in two different concentrations (10 µM and 30 µM) and incubated for another 72 h under cell-culturing conditions. […] After 72 h, 20 µL of the 5 mg/mL MTT solution was added to each well, and the plates were incubated for 4 h. The medium was removed, and the formazan crystals produced by the mitochondrial activity were dissolved in dimethyl sulfoxide (DMSO) via shaking at 37 °C for 30 min. The absorbances were measured at 545 nm using a microplate reader (SPECTROStar Nano, BMG Labtech, Offenburg, Germany). The reference agent was cisplatin, which is a widely used cytotoxic agent. The IC50 values were calculated using sigmoid curve fitting. Two independent experiments were performed with five parallel wells for each condition. Calculations were performed using the GraphPad Prism 9 software (GraphPad Software Inc., San Diego, CA, USA).

[2] = system: A2780 cells; assay: MTT antiproliferative assay, A2780; assay type: cell-based; conditions: Homo sapiens, 72 h, read-out: Growth inhibition (%) ± SEM; for inhibition at 10 µM: A2780, 10 μM; for inhibition at 30 µM: A2780, 30 μM
Method: as §1

[3] = system: NIH/3T3 fibroblast cells; assay: MTT assay on non-malignant fibroblasts (selectivity); assay type: cell-based, murine; conditions: Mus musculus, NIH3T3, 72 h, read-out: Growth inhibition (%) ± SEM; for inhibition at 10 µM: NIH/3T3, 10 μM; for inhibition at 30 µM: NIH/3T3, 30 μM
Method: as §1

[4] = system: MDA-MB-231 cells; assay: MTT antiproliferative assay, MDA-MB-231; assay type: cell-based; conditions: Homo sapiens, 72 h, read-out: Growth inhibition (%) ± SEM; for inhibition at 10 µM: MDA-MB-231, 10 μM; for inhibition at 30 µM: MDA-MB-231, 30 μM
Method: as §1

[5] = system: MCF-7 cells; assay: MTT antiproliferative assay, MCF-7; assay type: cell-based; conditions: Homo sapiens, MCF7, 72 h, read-out: Growth inhibition (%) ± SEM; for inhibition at 10 µM: MCF-7, 10 μM; for inhibition at 30 µM: MCF-7, 30 μM
Method: as §1

[6] = system: HeLa cells; assay: MTT antiproliferative assay, HeLa; assay type: cell-based; conditions: Homo sapiens, 72 h, read-out: Growth inhibition (%) ± SEM
Method: as §1

Row | Compound | inhibition at 10 µM [1] [%] | inhibition at 30 µM [1] [%] | inhibition at 10 µM [2] [%] | inhibition at 30 µM [2] [%] | inhibition at 10 µM [3] [%] | inhibition at 30 µM [3] [%] | inhibition at 10 µM [4] [%] | inhibition at 30 µM [4] [%] | inhibition at 10 µM [5] [%] | inhibition at 30 µM [5] [%] | inhibition at 10 µM [6] [%] | inhibition at 30 µM [6] [%]
1 | COC(=O)[C@]1(C)CCC[C@@]2(C)[C@@H]3CC[C@@]4(CN[C@H](C)c5ccc6ccccc6c5)C[C@]3(CC[C@@H]21)C[C@H]4O [Compound 29, (4R,4aS,6aR,8R,9S,11aR,11bS)-Methyl 8-hydroxy-4,11b-dimethyl-9-((((R)-1-(naphthalen-2-yl)ethyl)amino)methyl)tetradecahydro-6a,9-methanocyclohepta[a]naphthalene-4-carboxylate] | < 20 | 79.5 ± 2.33 | 21.9 ± 0.73 | 75 ± 1.79 | < 20 | 32 ± 1.3 | < 20 | 95.3 ± 0.97 | 32.5 ± 0.92 | 93.08 ± 0.3 | < 20 | 92.17 ± 0.38
2 | COC(=O)[C@]1(C)CCC[C@@]2(C)[C@@H]3CC[C@@]4(CO)C[C@]3(CC[C@@H]21)C[C@H]4NCc1cccc2ccccc12 [Compound 15, (4R,4aS,6aR,8R,9R,11aR,11bS)-Methyl 9-(hydroxymethyl)-4,11b-dimethyl-8-((naphthalen-1-ylmethyl)amino)tetradecahydro-6a,9-methanocyclohepta[a]naphthalene-4-carboxylate] | < 20 | 87.9 ± 1.33 | 89.5 ± 1.76 | 99.67 ± 0.49 | < 20 | 96.5 ± 0.77 | 31.3 ± 1.89 | 94.2 ± 0.98 | 54 ± 3.39 | 97.43 ± 0.59 | < 20 | 94.9 ± 2.04
3 | COC(=O)[C@]1(C)CCC[C@@]2(C)[C@@H]3CC[C@@]4(CN[C@H](C)c5cccc6ccccc56)C[C@]3(CC[C@@H]21)C[C@H]4O [Compound 28, (4R,4aS,6aR,8R,9S,11aR,11bS)-Methyl 8-hydroxy-4,11b-dimethyl-9-((((R)-1-(naphthalen-1-yl)ethyl)amino)methyl)tetradecahydro-6a,9-methanocyclohepta[a]naphthalene-4-carboxylate] | 63.4 ± 2.66 | 86.1 ± 3.79 | 60.1 ± 2.24 | 98.53 ± 0.42 | < 20 | 94 ± 1.95 | 88 ± 0.54 | 92.9 ± 1.04 | 90.63 ± 0.54 | 97.75 ± 0.39 | 46.8 ± 1.44 | 94.66 ± 0.63
4 | COC(=O)[C@]1(C)CCC[C@@]2(C)[C@@H]3CC[C@@]4(CNCc5cccc6ccccc56)C[C@]3(CC[C@@H]21)C[C@H]4O [Compound 26, (4R,4aS,6aR,8R,9S,11aR,11bS)-Methyl 8-hydroxy-4,11b-dimethyl-9-(((naphthalen-1-ylmethyl)amino)methyl)tetradecahydro-6a,9-methanocyclohepta[a]naphthalene-4-carboxylate] | 63.4 ± 0.91 | 86.9 ± 1.69 | 61.4 ± 1.45 | 98.21 ± 0.43 | 25.7 ± 1.93 | 95.6 ± 0.96 | 87.61 ± 0.59 | 93.1 ± 1.53 | 90.7 ± 1.57 | 97.49 ± 0.53 | 49.5 ± 1.23 | 93.6 ± 1.56
5 | COC(=O)[C@]1(C)CCC[C@@]2(C)[C@@H]3CC[C@@]4(CO)C[C@]3(CC[C@@H]21)C[C@H]4NCc1ccccc1 [Compound 8, (4R,4aS,6aR,8R,9R,11aR,11bS)-Methyl 8-(benzylamino)-9-(hydroxymethyl)-4,11b-dimethyltetradecahydro-6a,9-methanocyclohepta[a]naphthalene-4-carboxylate] | < 20 | 95.3 ± 1.23 | 20.3 ± 2.05 | 98.25 ± 0.4 | 25.7 ± 0.97 | 98.27 ± 0.37 | < 20 | 97.89 ± 0.66 | 45.4 ± 1.94 | 98.9 ± 0.18 | < 20 | 97.49 ± 0.52
6 | COC(=O)[C@]1(C)CCC[C@@]2(C)[C@@H]3CC[C@@]4(CN[C@@H](C)c5cccc6ccccc56)C[C@]3(CC[C@@H]21)C[C@H]4O [Compound 27, (4R,4aS,6aR,8R,9S,11aR,11bS)-Methyl 8-hydroxy-4,11b-dimethyl-9-((((S)-1-(naphthalen-1-yl)ethyl)amino)methyl)tetradecahydro-6a,9-methanocyclohepta[a]naphthalene-4-carboxylate] | < 20 | 86.9 ± 2.27 | 59 ± 1.68 | 98.92 ± 0.22 | < 20 | 94 ± 1.64 | 67.2 ± 1.94 | 93.69 ± 0.42 | 79.6 ± 2.89 | 97.63 ± 0.31 | < 20 | 96.38 ± 0.83
7 | COC(=O)[C@]1(C)CCC[C@@]2(C)[C@@H]3CC[C@@]4(CO)C[C@]3(CC[C@@H]21)C[C@H]4NCc1ccc(F)cc1 [Compound 9, (4R,4aS,6aR,8R,9R,11aR,11bS)-Methyl 8-((4-fluorobenzyl)amino)-9-(hydroxymethyl)-4,11b-dimethyltetradecahydro-6a,9-methanocyclohepta[a]naphthalene-4-carboxylate] | < 20 | 86 ± 2.92 | 73.6 ± 2.61 | 99.01 ± 0.11 | < 20 | 93.9 ± 1.94 | 58 ± 2.59 | 93.42 ± 0.39 | 79.8 ± 1.59 | 98.07 ± 0.35 | < 20 | 95.35 ± 0.58
8 | COC(=O)[C@]1(C)CCC[C@@]2(C)[C@@H]3CC[C@@]4(CO)C[C@]3(CC[C@@H]21)C[C@H]4NCc1ccc(OC)cc1 [Compound 10, (4R,4aS,6aR,8R,9R,11aR,11bS)-Methyl 9-(hydroxymethyl)-8-((4-methoxybenzyl)amino)-4,11b-dimethyltetradecahydro-6a,9-methanocyclohepta[a]naphthalene-4-carboxylate] | < 20 | 97.61 ± 0.9 | 39 ± 1.87 | 98.38 ± 0.51 | 20.3 ± 2.93 | 96.6 ± 1.1 | 78.7 ± 2.63 | 98.09 ± 0.59 | 86.5 ± 0.88 | 100 ± 0.2 | – | 97.65 ± 0.64
9 | CC[C@H](NC[C@@]12CC[C@@H]3[C@@](CC[C@H]4[C@@]3(C)CCC[C@@]4(C)C(=O)OC)(C[C@H]1O)C2)c1ccccc1 [Compound 25, (4R,4aS,6aR,8R,9S,11aR,11bS)-Methyl 8-hydroxy-4,11b-dimethyl-9-((((S)-1-phenylpropyl)amino)methyl)tetradecahydro-6a,9-methanocyclohepta[a]naphthalene-4-carboxylate] | < 20 | < 20 | < 20 | 73.83 ± 0.57 | < 20 | 93.7 ± 1.11 | < 20 | 69.3 ± 1.96 | 40.1 ± 1.44 | 78.8 ± 1.52 | < 20 | 32.2 ± 2.88
10 | CC[C@@H](NC[C@@]12CC[C@@H]3[C@@](CC[C@H]4[C@@]3(C)CCC[C@@]4(C)C(=O)OC)(C[C@H]1O)C2)c1ccccc1 [Compound 24, (4R,4aS,6aR,8R,9S,11aR,11bS)-Methyl 8-hydroxy-4,11b-dimethyl-9-((((R)-1-phenylpropyl)amino)methyl)tetradecahydro-6a,9-methanocyclohepta[a]naphthalene-4-carboxylate] | < 20 | 78.1 ± 1.56 | < 20 | 99.28 ± 0.52 | 21.8 ± 2.15 | 97.69 ± 0.87 | < 20 | 97.6 ± 1.01 | 34.8 ± 1.99 | 93.6 ± 0.94 | < 20 | 96.56 ± 0.88
